EC50, IC50 and outcome data for 71 compounds are collected here from PubChem BioAssay AID179 (DTP/NCI, 2004).

The subject of this experiment is CEM cells HIV-1 protection, formazan growth assay. Kind of experiment: NCI AIDS Antiviral Assay. The settings on record: for IC50: measured here: growth of uninfected CEM cells. In short, it runs like this: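 Human CEM cells, uninfected and HIV-1-infected, exposed to five drug concentrations; growth measured by soluble formazan assay and scored as percent protection from infection, with protecting compounds retested.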

Activity calls are given as the source filed them.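 The calls were made as follows: active = compounds giving half or more protection of infected cells from virus-caused growth loss, again on retest; inactive = the rest.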

Broadly, the EC50 is the concentration that produces a half-maximal response. The IC50 is the concentration needed to halve the response being measured.

For `CCOC(=O)/C(O)=C(\C=N\C(=S)Nc1ccc(Cl)c(Cl)c1)C(=O)OCC`, the EC50 was greater than 200 µM and the IC50 was greater than 200 µM.
Take `CC1(C)OC(=O)C(=Cc2ccccc2Br)C(=O)O1`: the EC50 was greater than 417 µM and the concentration for half-maximal inhibition (IC50) was 1.29 µM.
In the same order, the values of `CC(/C=C/C(=O)c1sc(-n2nc(-c3ccccc3)cc2-c2ccccc2)nc1C)=C\c1ccccc1` are greater than 27.5 µM and greater than 27.5 µM.
In the same order, the values of `O=C(Cn1c2ccc(Br)cc2c2nc3ccccc3nc21)NNC(=O)NC1CCCCC1` are greater than 200 µM and 182 µM.
In the case of `O=C(Cc1ccccc1)NCCCN(CCCCN(CCCNC(=O)Cc1ccccc1)C(=O)OCc1ccccc1)C(=O)OCc1ccccc1`, the outcome was inactive.
As to `O=[N+]([O-])c1ccc2[nH]c(=S)n(/C=C(/c3ccc(Cl)cc3Cl)S(=O)(=O)Cc3ccc(Cl)cc3Cl)c2c1`, the EC50 is greater than 200 µM and the IC50 was 170 µM.
For `O=c1[nH]c2ccccc2c(O)c1/C=N/C(=S)NCCc1ccccc1`, in that order: greater than 200 µM and greater than 200 µM.
As to `COc1ccc(C2C3=C(N=C4SC(C(C)=O)=C(C)N42)c2ccccc2CC3)cc1` (configuration not stated), the EC50 is greater than 200 µM and the IC50 was 17.4 µM.
In the same order, the values of `OC1(c2ccc(Cl)cc2)c2ccccc2-c2nc3ccccc3n21` (configuration not stated) are greater than 200 µM and 174 µM.
For `CCN(CC)C(=S)SSC(=S)N(CC)CC`, in that order: greater than 200 µM and 44.7 µM.
Turning to `COc1ccc(NC(=O)CC(=O)N2N=C(N(c3ccccc3)c3ccccc3)CC2c2ccccc2)cc1` (configuration not stated), the result was inactive.
Turning to `Nc1c(N2CCCCC2)c(=O)nc2[nH]/c(=C\c3ccccc3)c(=O)n12`, the EC50 was greater than 200 µM and the IC50 came to 95.5 µM.
For `CNC(=O)N(CCC#N)CCN(C(=O)N(C)C)c1ccccc1`, in that order: greater than 200 µM and greater than 200 µM.
For `COc1cc2oc(-c3ccc(O)cc3)cc(=O)c2c(OC)c1OC`, in that order: 97.7 µM and greater than 200 µM.
For `CCCCC1OCCOC1C1COCCO1` (configuration not stated), in that order: greater than 195 µM and greater than 195 µM.
`Cc1nc2c(s/c(=N\N)n2-c2ccccc2)c(=O)[nH]1`: the EC50 was greater than 36.3 µM and the concentration for half-maximal inhibition (IC50) is greater than 36.3 µM.
Turning to `O=S(=O)(O)OC1CCCC1S(=O)(=O)O` (configuration not stated), the EC50 is greater than 200 µM and the IC50 is greater than 200 µM.
On to `CCOC(=O)CC(NC(=O)c1ccc(N=NN(C)C)cc1)C(=O)OCC` (configuration not stated), for which the EC50 is greater than 186 µM and the 50% inhibitory concentration (IC50) was greater than 186 µM.
`CN(NC(=O)/C(=C/c1ccc2c(c1)OCO2)NC(=O)c1ccccc1)c1ccnc2cc(Cl)ccc12`: the EC50 is greater than 200 µM and the IC50 is 10.5 µM.
For `COc1cccc(/C=c2\[nH]c(=O)/c(=C/c3cccc(OC)c3OC)[nH]c2=O)c1OC`, in that order: greater than 9.12 µM and greater than 9.12 µM.
In the same order, the values of `C[N+]12CC3C(O)CC1CCC32` (configuration not stated) are greater than 1320 µM and greater than 1320 µM.
In the same order, the values of `Nc1nc(SCc2ccccn2)c2ncn(C3CCCC3)c2n1` are greater than 200 µM and 110 µM.
For `Cc1cc(C(C)(C)C)oc(=O)c1NC(=O)c1ccccc1`, the EC50 was greater than 200 µM and the IC50 amounted to 155 µM.
Take `CCOC(=O)c1nc2ccccc2nc1Oc1ccc(C#N)cc1`: the EC50 was greater than 200 µM and the IC50 is greater than 200 µM.
`CC[C@]1(Cc2ccc(OC)c(OC)c2)C=[N+]([O-])O[C@H](OCc2ccccc2)[C@@H]1OC(C)=O`: the EC50 is greater than 200 µM and the IC50 was found to be 38 µM.
In the same order, the values of `CN1C2CCCC1CC(=O)NC2` (configuration not stated) are greater than 1480 µM and greater than 1480 µM.
For `CCN(CC)CC(C)C(O)(c1ccc(Cl)cc1)C1CCCCC1` (configuration not stated), in that order: greater than 200 µM and 13.2 µM.
For `NCc1ccc(S(N)(=O)=O)cc1`, in that order: greater than 200 µM and greater than 200 µM.
`C/C(=N/NC(=S)NCCc1ccccn1)c1cnccn1`: the EC50 was greater than 200 µM and the IC50 came out at 8.71 µM.
In the same order, the values of `COc1ccc(Cl)c2c1[nH]c1nc3nc4cc(Cl)ccc4n3nc12` are greater than 100 µM and greater than 100 µM.
For `CC(=O)Nc1ccc(/C=N/Nc2nnc(N/N=C/c3ccc(NC(C)=O)cc3)c3ccccc23)cc1`, in that order: greater than 200 µM and 7.59 µM.
In the same order, the values of `COc1ccc(OC)c(/C=C2\CCc3ccccc3C2=O)c1` are greater than 17.8 µM and 2.88 µM.
Regarding `O=C(NN=C1CCCCC1)NN=C1CCCCC1`, the EC50 was greater than 100 µM and the IC50 is greater than 100 µM.
As for `O=S(O)c1cc(Cl)c(O)c(Cl)c1`, the result was inactive.
As for `O=C(NNC(=S)NC1CCCCC1)c1csc(NC(=S)NC2CCCCC2)n1`, the EC50 was greater than 20 µM and the IC50 was found to be 1.86 µM.
`COc1ccc(C(=O)O/N=C2/CCCCC2CN(C)C)cc1` (configuration not stated): the outcome was inactive.
Regarding `CNC(=O)C1CCCN1C(=O)C(Cc1cnc[nH]1)NC(=O)C1CCC(=O)N1` (configuration not stated), the EC50 is greater than 200 µM and the IC50 is greater than 200 µM.
As to `CCOC(=O)NC(Nc1ccc(F)c(F)c1)(C(=O)OCC)C(F)(F)F` (configuration not stated), the EC50 was greater than 200 µM and the IC50 was greater than 200 µM.
Regarding `CC1(C)CNCC2(C)OCCCOC3(C)CNCC(C)(C)NC(=O)C(C)(CNCC(C)(C)NC3=O)OCCCOC(C)(CNCC(C)(C)NC2=O)C(=O)N1`, the EC50 was greater than 200 µM and the IC50 is greater than 200 µM.
For the compound `CCc1cc2c(Nc3ccccc3)c3c(nc2s1)CCCC3`, the EC50 is greater than 85.1 µM and the IC50 is greater than 85.1 µM.
As to `O=C1NC(N/N=C\c2ccccc2)=N/C1=C/c1ccc(Cl)cc1`, the outcome was inactive.
With `C[C@]1(CI)OC(=O)N2CCC[C@H]21`, the EC50 is greater than 891 µM and the IC50 is greater than 891 µM.
In the case of `Cc1c(CCCl)c(Cl)n2c(nc3ccccc32)c1C#N`, the EC50 was greater than 33.9 µM and the IC50 was determined as 0.537 µM.
In the same order, the values of `NCCCCNCCCNC(=O)c1csc(-c2nc(CCN)sc2Cl)n1` are greater than 302 µM and 18.6 µM.
As for `[N-]=[N+]=NS(=O)(=O)c1cccc([N+](=O)[O-])c1`, the outcome was inactive.
`CC1=C[C@H]2O[C@@H]3C[C@H]4OC(=O)/C=C\C=C\C(C(C)O)OCC(O)C(C)CC(=O)OC[C@@]2(C[C@@H]1O)[C@]4(C)[C@@]31CO1` (some centres not stated): the EC50 was greater than 2 µM and the IC50 was 0.0631 µM.
For `CC(C)(C)c1ccc(O)c(C(O)c2ccncc2)c1` (configuration not stated), in that order: greater than 200 µM and 79.4 µM.
In the same order, the values of `CN(C)CCCCN1c2ccccc2Sc2ccc(N=[N+]=[N-])cc21` are greater than 200 µM and 3.24 µM.
In the same order, the values of `CCOC(=O)C(C1=C(O)c2ccccc2C(=O)C1=O)C1=C(O)c2ccccc2C(=O)C1=O` are greater than 200 µM and 67.6 µM.
`Nc1nnc2ccccn12`: the EC50 was greater than 977 µM and the half-inhibitory concentration (IC50) is greater than 977 µM.
In turn, `COC(=O)c1ccc([As](=O)(O)O)cc1C(C)=O` gave an EC50 greater than 200 µM and an IC50 of 148 µM.
In the same order, the values of `O=C(CC(=O)C1=CNc2ccccc2S1)C(=O)Nc1ccc(Cl)cc1` are greater than 126 µM and greater than 126 µM.
For `CN(C(=O)C12C3C4C1C1C4(C#N)C3C12C(=O)O)C(C)(C)C` (configuration not stated), in that order: greater than 158 µM and greater than 158 µM.
For `CC(=O)N(CCc1ccccc1)C(C#N)c1ccc(OCCCCCCCCCCOc2ccc(C(C#N)N(CCc3ccccc3)C(C)=O)cc2)cc1` (configuration not stated), in that order: greater than 100 µM and greater than 100 µM.
Regarding `OCCN1c2ccccc2Sc2ccccc21`, the EC50 was greater than 200 µM and the IC50 came to 105 µM.
In the same order, the values of `O=C1/C(=C/c2cccc(Cl)c2)Cc2ccccc21` are greater than 28.2 µM and greater than 28.2 µM.
For the compound `Cc1cn(CC2(CO)CCC2)c(=O)[nH]c1=O`, the EC50 was greater than 200 µM and the concentration for half-maximal inhibition (IC50) was greater than 200 µM.
In the case of `NC(=S)N/N=C\C12CC3CC(CC(C3)C1)C2`, the outcome was inactive.
Still for that read-out and setting: then `CC(c1ccccc1)N1C(=O)CSC1=S` (configuration not stated), with “inactive”.
On to `O=C(CN1CCCCC1)c1ccc2c(c1)Sc1ccccc1O2`, for which the EC50 is greater than 200 µM and the IC50 turned out to be 3.47 µM.
In the case of `CCOC(=O)c1ccc(N=Nc2ccc(N(CCC#N)CCC#N)cc2C)cc1`, the EC50 was greater than 9.77 µM and the IC50 is greater than 9.77 µM.
In the case of `COc1ccc(-c2c(C)c(C(=O)O)nc(-c3ccc4c(O)c(OC)c5c(c4n3)=NC(C)(C)N=5)c2N)c(O)c1OC`, the EC50 was greater than 457 µM and the IC50 worked out at 2.4 µM.
In the same order, the values of `Cc1ccc(C2=C(c3ccccc3)C(O)(c3ccc(C)cc3)C(c3ccccc3)=C2c2ccc(C)cc2)cc1` are greater than 5.13 µM and greater than 5.13 µM.
For `COC(=O)CN(CC(=O)OC)S(=O)(=O)c1ccc(-c2c3nc(c(-c4ccc(S(=O)(=O)N(CC(=O)OC)CC(=O)OC)cc4)c4ccc([nH]4)c(-c4ccc(S(=O)(=O)N(CC(=O)OC)CC(=O)OC)cc4)c4nc(c(-c5ccc(S(=O)(=O)N(CC(=O)OC)CC(=O)OC)cc5)c5ccc2[nH]5)C=C4)C=C3)cc1`, in that order: greater than 100 µM and greater than 100 µM.
In the same order, the values of `COC(=O)C1CCCN1C(=O)OC(C)(C)C` (configuration not stated) are 57.5 µM and greater than 200 µM.
Turning to `CC1=C(C/C=C/c2ccccc2)C(=O)c2ccccc2C1=O`, the result was inactive.
Turning to `CC(C)CCC[C@@H](C)[C@H]1CCC2[C@@H]3CC[C@H]4C[C@@H](CCC=C(c5cc(Cl)c(OCc6ccc(-c7ccc(C(=O)O)cc7)cc6)c(C(=O)O)c5)c5cc(Cl)c(OCc6ccc(-c7ccc(C(=O)O)cc7)cc6)c(C(=O)O)c5)CC[C@]4(C)[C@H]3CC[C@@]21C` (some centres not stated), the EC50 was greater than 200 µM and the IC50 was 170 µM.
As for `NC1=NCC(c2ccccn2)C1c1ccc(F)cc1` (configuration not stated), the result was inactive.
With `O=C(CC(=O)c1ccccc1)C(=O)NC12CC3CC(CC(C3)C1)C2`, the EC50 is greater than 11.5 µM and the IC50 was greater than 11.5 µM.
As for `O=C1/C(=C\c2cccc(Oc3ccccc3)c2)S(=O)(=O)C(c2ccccc2)N1Cc1ccccc1` (configuration not stated), the EC50 was greater than 20 µM and the IC50 is greater than 20 µM.
On to `CN1C=CC(C(C(N)=O)c2ccccc2)c2ccccc21` (configuration not stated), for which the EC50 is greater than 200 µM and the IC50 came to 178 µM.
